Values joined by “and” are separate entries in the source; they are usually repeats but may differ in a detail not shown here. Equal entries are not always repeated.
Experiments:
[1] = 101 kPa, Liquid, Vibrating tube method
[2] = molar heat capacity at constant pressure; conditions: 101 kPa, Liquid, Small sample (50 mg) DSC
[3] = molar heat capacity at constant pressure; xn = mol fraction of the nth substance listed; conditions: 101 kPa, Liquid, Small sample (50 mg) DSC, x2 = 0
[4] = xn = mol fraction of the nth substance listed; conditions: 101 kPa, Liquid, Vibrating tube method, x2 = 0

CCCCCCCCC [nonane]
Conditions | mass density, [1] [kg/m3] | molar heat capacity at constant pressure, [2] [J/K/mol]
285.15 K | 724.54 | 278.38
288.15 K | 722.22 | 279.6
293.15 K | 718.35 | 281.72
298.15 K | 714.46 | 283.86
303.15 K | 710.55 | 286.11
308.15 K | 706.63 | 288.4
313.15 K | 702.7 | 290.76

CCCCCCCC [octane]
Conditions | mass density, [1] [kg/m3] | molar heat capacity at constant pressure, [2] [J/K/mol]
283.15 K | 710.76 | 248.2
288.15 K | 706.76 | 250.1
293.15 K | 702.74 | 252.06
298.15 K | 698.71 | 254.08
303.15 K | 694.66 | 256.16
308.15 K | 690.58 | 258.28
313.15 K | 686.49 | 260.45
318.15 K | 682.37 | 262.66

CCCCCCCC [octane] + N#Cc1ccccc1
Conditions | mass density, [4] [kg/m3] | molar heat capacity at constant pressure, [3] [J/K/mol]
283.15 K | 710.76 | 248.2
288.15 K | 706.76 | 250.1
293.15 K | 702.74 | 252.06
298.15 K | 698.71 | 254.08
303.15 K | 694.66 | 256.16
308.15 K | 690.58 | 258.28
313.15 K | 686.49 | 260.45
318.15 K | 682.37 | 262.66

CCCCCCCCC [nonane] + N#Cc1ccccc1
Conditions | mass density, [4] [kg/m3] | molar heat capacity at constant pressure, [3] [J/K/mol]
285.15 K | 724.54 | 278.38
288.15 K | 722.22 | 279.6
293.15 K | 718.35 | 281.72
298.15 K | 714.46 | 283.86
303.15 K | 710.55 | 286.11
308.15 K | 706.63 | 288.4
313.15 K | 702.7 | 290.76

N#Cc1ccccc1 [benzonitrile]
Conditions | mass density, [1] [kg/m3] | molar heat capacity at constant pressure, [2]
283.15 K | 1013.99 | 163.43 J/K/mol
285.15 K | 1012.21 | 163.9 J/K/mol
288.15 K | 1009.55 | 164.61 J/K/mol and 164.63 J/K/mol
293.15 K | 1005.12 | 165.82 J/K/mol
298.15 K | 1000.69 | 167.06 J/K/mol
303.15 K | 996.26 | 168.32 J/K/mol
308.15 K | 991.83 | 169.59 J/K/mol
313.15 K | 987.4 | 170.87 J/K/mol
318.15 K | 982.96 | 172.15 J/K/mol

— the NIST ThermoML archive (doi:10.1021/je100145f)
